The subject of assay [1] is wild type and ORL knockout mice. The assay is described as follows: Blockade of fasting-induced hyperphagia in mice. Format: in vivo, mouse. Conditions: wild type mice, oral gavage 30 min. prior to food, food intake 1 hr.
Assay [2] deals with NIH-Swiss mice; 129S6 wild type and nociceptin/ORL1 receptor knockout mice. The assay can be described thus: Forced-swim test in mice (mFST). In kind it is in vivo, mouse. Conditions: mFST. From the text: Forced-Swim Test in Mice (mFST) mFST is an established in vivo assay for antidepressant activity (Li et al. J Pharmacol Exp Ther. 319(1):254-9, 2006.). […] The mFST was used to evaluate potential antidepressant-like activity of novel nociceptin/ORL1 antagonists according to previously published methods (Li et al. J Pharmacol Exp Ther. 319(1):254-9, 2006.). Briefly, male NIH-Swiss mice (Harlan Sprague-Dawley, Indianapolis, Ind.) weighing between 25-30 g are used. Group housed animals are removed from the vivarium to the testing area in their own cages and allowed to adapt to the new environment for at least 1 hour before testing. Alternatively, male 129S6 wild type and nociceptin/ORL1 receptor knockout mice were used to confirm dependence of the response to compound was nociceptin/ORL1 receptor dependent. All compounds are prepared in 20% Captisol, 25 mM phosphate buffer, pH 2.0 on the day of use. Mice are placed in a cylinder (diameter: 10 cm; height: 25 cm) filled with 6 cm of water (22-25° C.) for 6 min. The duration of immobility during the last 4 min. of the 6 min. period of the test was scored. A mouse is recorded as immobile when floating motionless or making only those movements necessary to keep its head above water.

For `Cc1nn(-c2c(F)cccc2F)cc1CN1CCC2(CC1)OCC(F)(F)c1cc(Cl)sc12.O=C(O)C(O)C(O)C(=O)O` [Example 2, 2-Chloro-1′-[[1-(2,6-difluorophenyl)-3-methyl-pyrazol-4-yl]methyl]-4,4-difluoro-spiro[5H-thieno[2,3-c]pyran-7,4′-piperidine] (L)-Tartrate], in assay [1], the fasting-induced hyperphagia result is on record as “substantially block fasting-induced hyperphagia”. Besides, the “maximum effect, reduction in immobilization time” value in assay [2] was 56%. This compound also yielded an ED60 in assay [2] (immobility time) of 23 nM.

The record behind these values is patent US20120214784A1, “SPIROPIPERIDINE COMPOUNDS AS ORL-1 RECEPTOR ANTAGONISTS” (ELI LILLY AND COMPANY, priority 2009, published 2012).
